According to ChEMBL document CHEMBL4673313, “Small-Molecule Inhibitors Directly Targeting KRAS as Anticancer Therapeutics” (J Med Chem, 2020):

Key:
[1] = test system: DLD-1; test: Antiproliferative activity against human DLD-1 cells incubated for 72 hrs by CellTitreGlo assay; format: functional, cell-based; details: DLD-1, 72 h
[2] = test system: A549; test: Antiproliferative activity against human A549 cells incubated for 3 days by CellTiter-Glo assay; format: functional, cell-based; details: A549, 72 h
[3] = test system: NCI-H358; test: Antiproliferative activity against human NCI-H358 cells incubated for 14 days by alamar blue dye based assay; format: functional, cell-based; details: NCI-H358, 336 h
[4] = test system: GTPase KRas (Homo sapiens), P01116 [G12C]; test: Binding affinity to human hexahistidine-tagged KRas G12C mutant (1 to 169 residues) expressed in Escherichia coli(BL21 (DE3)) assessed as rate constant for covalent modification by measuring Kobs/[I] at 10 uM by liquid chromatography-electrospray mass spectrometry analysis
[5] = target: GTPase KRas (Homo sapiens, UniProt P01116, G12D); test: Binding affinity to 15N-labelled GDP bound KRas G12D mutant ( 1 to 169 residues) (unknown origin) expressed in Escherichia coli Rosetta 2 (DE3) cells by 1H/15N- HSQC spectroscopy
[6] = target: T1, GTPase KRas (Homo sapiens, UniProt P01116); test: Inhibition of KRas activation in HEK 293T-REx Flp-In cells harboring Venus-RBD-CRD/mCherry-CAAX assessed as reduction in Venus-RBD-CRD recruitment to plasma membrane by inverted confocal microscopy; set-up: species or system Flp-In-T-REx-293
[7] = Binding affinity to GppNHp-bound N-terminal His6-tagged KRAS4B G12D mutant (1 to 169 residues) (unknown origin) at 10 uM by 19F NMR Spectroscopy; set-up: species or system Homo sapiens
[8] = Binding affinity to GppNHp-bound N-terminal His6-tagged KRAS4B G12D mutant (1 to 169 residues) (unknown origin) by isothermal titration calorimetry; set-up: species or system Homo sapiens
[9] = Binding affinity to GppNHp-bound N-terminal His6-tagged KRAS4B G12D mutant (1 to 169 residues) (unknown origin) by microscale thermophoresis; set-up: species or system Homo sapiens
[10] = test system: DLD-1; test: Antiproliferative activity against human DLD-1 cells; format: functional, cell-based
[11] = test system: DLD-1; test: Antiproliferative activity against human DLD-1 cells harboring KRAS G13D mutant incubated for 72 hrs by CellTitreGlo assay; format: functional, cell-based; details: DLD-1, 72 h
[12] = target: T1, GTPase KRas; test: Inhibition of GDP-bound KRas activation (unknown origin) expressed in Escherichia coli Rosetta2 (DE3) cells assessed as reduction in SOS-catalyzed nucleotide exchange at 1 mM in presence of BODIPY-GTP by fluorescence method relative to control
[13] = test system: GTPase KRas (Homo sapiens), P01116 [G12C]; test: Covalent binding affinity to GDP-loaded hexahistidine-tagged KRas G12C mutant (1 to 169 residues) (unknown origin) expressed in Escherichia coli assessed as rate constant by liquid chromatography-electrospray mass spectrometry analysis
[14] = Oral bioavailability in BALB/c mouse at 10 mg/kg by LC-MS/MS analysis; format: ADME, organism-based; details: in vivo

COc1cccc(-c2ccc(Nc3ccc(CN(C)C)cc3)c(OC)c2F)c1
IC50 [1]: 4.5 µM

CCCC(CCC)COC(=O)[C@@H](C)NP(=O)(OCCNC(=O)CCl)OP(=O)(O)OC[C@H]1O[C@@H](n2cnc3c(=O)[nH]c(N)nc32)[C@H](O)[C@@H]1O (stereo partly specified)
EC50 [2]: 43.8 µM

Cn1cnc(Cn2ccc3ccc(CNCc4[nH]c5ccccc5c4[C@H]4NC(=O)c5ccc(O)cc54)cc32)c1
IC50 [3]: 6.7 µM

C=CC(=O)N1CCN(c2ncnc3cc(-c4ccccc4O)c(Cl)cc23)CC1
K [4]: 12 M⁻¹ s⁻¹

c1ccc2c(Cc3nc4ccncc4[nH]3)c[nH]c2c1
Kd [5]: 1300 µM

Cc1[nH]c2cc(Cl)cc(Cl)c2c1CCN
EC50 [6]: 15.8 µM

NC1(C(=O)NCCCn2cc(-c3ccc(OC(F)(F)F)cc3)c3cc(CN4CCN(Cc5c(Cl)cccc5Cl)CC4)ccc32)CCNCC1
Kd [7]: 9 µM
Kd [8]: 9 µM
Kd [9]: 9 µM
IC50 [10]: 8.8 µM

COc1nc(-c2cccc3c2OCCO3)ccc1Nc1ccc(CN(C)C)cc1
IC50 [11]: 8 µM

CC[C@H](C)[C@H](N)C(=O)Nc1ccc2nc(Cc3c[nH]c4ccccc34)[nH]c2c1
inhibition [12]: 78%

C=CC(=O)N1CC(N2CCN(C(=O)CNc3cc(C4(C)CC4)c(Cl)cc3O)CC2)C1
K [13]: 76 M⁻¹ s⁻¹
K [4]: 140 M⁻¹ s⁻¹
bioavailability [14]: > 60%

C=CC(=O)N1CCN(c2ncnc3c(F)c(-c4c(O)cccc4F)c(Cl)cc23)CC1 (atropisomer S)
K [4]: 1100 M⁻¹ s⁻¹
